Reference: patent US20060258598A1, “Alpha-keto carbonyl calpain inhibitors” (priority 2003, published 2006)

What was measured:
[1] = target: T1, human μ-calpain (Homo sapiens, UniProt P07384); test: Enzymatic calpain inhibition assay; format: biochemical; settings: substrate Suc-Leu-Tyr-AMC, read-out: Calp I IC50
T1 construct: purchased Calbiochem
T1 sequence (P07384 1-714): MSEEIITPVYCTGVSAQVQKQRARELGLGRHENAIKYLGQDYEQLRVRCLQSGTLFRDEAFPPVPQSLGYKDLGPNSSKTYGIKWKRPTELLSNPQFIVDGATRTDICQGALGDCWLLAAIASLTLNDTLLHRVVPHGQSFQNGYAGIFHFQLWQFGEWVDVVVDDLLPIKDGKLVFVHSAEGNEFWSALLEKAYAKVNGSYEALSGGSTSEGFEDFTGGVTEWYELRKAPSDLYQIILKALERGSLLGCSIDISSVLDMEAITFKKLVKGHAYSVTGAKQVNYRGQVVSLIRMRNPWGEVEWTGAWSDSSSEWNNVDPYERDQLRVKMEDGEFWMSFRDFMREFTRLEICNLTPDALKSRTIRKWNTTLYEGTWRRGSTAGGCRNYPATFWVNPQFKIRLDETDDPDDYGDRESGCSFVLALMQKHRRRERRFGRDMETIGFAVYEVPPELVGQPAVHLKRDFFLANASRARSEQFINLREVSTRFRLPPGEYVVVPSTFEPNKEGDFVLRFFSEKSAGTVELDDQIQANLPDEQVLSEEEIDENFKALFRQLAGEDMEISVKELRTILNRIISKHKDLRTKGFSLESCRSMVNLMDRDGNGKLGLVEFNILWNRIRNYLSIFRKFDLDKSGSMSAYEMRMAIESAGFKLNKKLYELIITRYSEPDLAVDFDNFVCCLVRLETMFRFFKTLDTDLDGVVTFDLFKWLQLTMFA
T1 sequence (P04632 1-268 partner): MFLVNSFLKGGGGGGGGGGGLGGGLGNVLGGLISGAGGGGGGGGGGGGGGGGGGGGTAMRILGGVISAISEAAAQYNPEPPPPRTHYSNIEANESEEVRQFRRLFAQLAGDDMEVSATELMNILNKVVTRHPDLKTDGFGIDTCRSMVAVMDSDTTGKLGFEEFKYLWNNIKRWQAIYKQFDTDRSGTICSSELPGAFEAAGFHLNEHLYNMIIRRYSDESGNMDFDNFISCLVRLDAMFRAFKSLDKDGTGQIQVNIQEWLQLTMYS
How it was run: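 Human μ-calpain (0.5 μg) with 250 μM Suc-Leu-Tyr-AMC in 100 mM imidazole pH 7.5, 5 mM cysteine, 5 mM CaCl2. AMC fluorescence (ex 360/em 440 nm) followed 30 min at 30 °C; IC50 determined graphically from initial velocities versus inhibitor concentration.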

[2] = tested on: cellular calpains in C2C12 myoblasts; test: Calpain inhibition assay in C2C12 myoblasts; format: cell-based; settings: 2 h incubation, calcium ionophore Br-A-23187, read-out: Calp I IC50 Myoblast
How it was run: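 Confluent C2C12 myoblasts in fusion medium (DMEM, 5% horse serum) exposed to compound for 2 h at 37 °C, then loaded with 400 μM Suc-Leu-Tyr-AMC for 20 min at room temperature in buffer with 4 mM CaCl2, HEPES pH 7.25. Calpains activated by Br-A-23187 ionophore (20 μM in added buffer); AMC fluorescence read each minute for 60 min at 37 °C to derive IC50.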

[3] = tested on: Primary fibroblasts from donors with Friedreich Ataxia (FRDA); test: BSO assay (cell viability under BSO-induced oxidative stress); format: cell-based, human; settings: Homo sapiens, Fibroblast, 24 h preincubation, 1 mM BSO
How it was run: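 FRDA patient primary fibroblasts were pretreated with compounds for 24 h, then exposed to 1 mM BSO (final) until toxicity appeared in BSO-only controls (typically 16–48 h). Viability was read by calcein AM (1.2 μM)/ethidium homodimer (4 μM) staining, 60 min RT, fluorescence 485/525 nm.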

SMILES: CCNC(=O)C(=O)[C@H](Cc1ccc(Br)cc1)NC(=O)[C@H](CC(C)C)NC(=O)CCCCC1CCSS1 (stereo partly drawn) [Example 64]
- IC50 [1]: 25 nM
- IC50 [2]: 500 nM
- EC50 [3]: 1000 nM
